Data taken from ChEMBL document CHEMBL2434851, “Squaric acid/4-aminoquinoline conjugates: novel potent antiplasmodial agents” (Eur J Med Chem, 2013).

What was measured:
HEK-293T = assay: Cytotoxicity against HEK293T cells assessed as cell viability after 48 hrs by MTT assay; format: cell-based; settings: Homo sapiens
NIH3T3 = assay: Cytotoxicity against mouse NIH/3T3 cells assessed as cell viability after 48 hrs by MTT assay; format: cell-based; settings: NIH3T3, 48 h
[1] = Inhibition of Plasmodium falciparum falcipain-2 using Z-Leu-Arg-AMC as substrate preincubated for 10 mins followed by substrate addition by spectrofluorometric analysis
Papain = biological target: T1, Papain (Carica papaya, UniProt P00784); assay: Inhibition of papaya papain using Z-Leu-Leu-Arg-AMC as substrate after 30 mins by fluorescence microplate reader analysis
T1 sequence (P00784 whole entry): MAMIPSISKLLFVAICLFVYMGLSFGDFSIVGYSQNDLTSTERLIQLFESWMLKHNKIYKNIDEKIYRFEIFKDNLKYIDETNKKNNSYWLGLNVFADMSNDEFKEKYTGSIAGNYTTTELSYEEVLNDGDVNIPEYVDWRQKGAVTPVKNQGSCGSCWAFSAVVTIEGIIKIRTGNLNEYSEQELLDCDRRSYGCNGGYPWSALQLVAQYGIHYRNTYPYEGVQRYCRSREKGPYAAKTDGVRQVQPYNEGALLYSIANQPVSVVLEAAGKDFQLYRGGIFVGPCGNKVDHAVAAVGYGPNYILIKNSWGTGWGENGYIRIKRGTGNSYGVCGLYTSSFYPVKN

in vitro = settings: human
Description: Selectivity index, ratio of IC50 for HEK293T cells to IC50 for ring stage of Plasmodium falciparum W2 infected in human RBC

Plasmodium falciparum = assay: microbe, parasite or virus in culture; settings: W2, 48 h
Description: Antiplasmodial activity against ring stage of chloroquine-resistant Plasmodium falciparum W2 infected in human RBC after 48 hrs by flow cytometric analysis

Row | Structure (SMILES) | IC50 (HEK-293T) | IC50 (NIH3T3) | IC50 [1] | IC50 (Papain) | selectivity ratio (in vitro) | IC50 (Plasmodium falciparum)
1 | O=C(NCCNc1ccnc2cc(Cl)ccc12)[C@H](Cc1ccccc1)Nc1c(N[C@@H](Cc2ccccc2)C(=O)NCCNc2ccnc3cc(Cl)ccc23)c(=O)c1=O | > 50 µM | > 50 µM | > 50 µM | > 10 µM | > 70 | 0.71 µM
2 | CCN(CC)CCCC(C)Nc1ccnc2cc(Cl)ccc12 (stereo not drawn) [CHLOROQUINE] | > 50 µM | > 50 µM |  |  |  | 
3 | O=c1c(N2CCC(Nc3ccnc4cc(Cl)ccc34)CC2)c(N2CCC(Nc3ccnc4cc(Cl)ccc34)CC2)c1=O | > 50 µM | > 50 µM |  |  | > 476 | 0.105 µM
4 | CCCCOc1c(N2CCN(c3ccnc4cc(Cl)ccc34)CC2)c(=O)c1=O | > 50 µM | > 50 µM |  | > 10 µM | > 6 | 7.82 µM
5 | O=c1c(NCCNc2ccnc3cc(Cl)ccc23)c(NCCNc2ccnc3cc(Cl)ccc23)c1=O | 5 µM | 4.5 µM |  | > 10 µM | 25 | 0.2 µM
6 | O=c1c(NCCCCNc2ccnc3cc(Cl)ccc23)c(NCCCCNc2ccnc3cc(Cl)ccc23)c1=O | > 50 µM | > 50 µM |  | > 10 µM | > 526 | 0.095 µM
7 | COc1c(NCCNc2ccnc3cc(Cl)ccc23)c(=O)c1=O | > 50 µM | > 50 µM | > 10 µM | > 10 µM | > 32 | 1.56 µM
8 | CC(C)C[C@H](NC(=O)[C@H]1O[C@@H]1C(=O)O)C(=O)NCCCCN=C(N)N [E-64] |  |  | 0.06 µM | 0.007 µM |  | 
9 | CCCCOc1c(OCCCC)c(=O)c1=O [SQUARIC ACID DIBUTYL ESTER] |  |  |  |  |  | 8.84 µM
10 | CCCCOc1c(NCCCNc2ccnc3cc(Cl)ccc23)c(=O)c1=O |  |  | > 10 µM | > 10 µM |  | > 10 µM
11 | CCCCOc1c(NCCCC(C)Nc2cc(OC)cc3cccnc23)c(=O)c1=O (stereo not drawn) | > 50 µM | > 50 µM |  | > 10 µM | > 2 | 18.6 µM
12 | O=c1c(NCCCNc2ccnc3cc(Cl)ccc23)c(NCCCNc2ccnc3cc(Cl)ccc23)c1=O | > 50 µM | > 50 µM |  | > 10 µM | > 505 | 0.099 µM
13 | COc1c(NCCCNc2ccnc3cc(Cl)ccc23)c(=O)c1=O | > 50 µM | > 50 µM |  | > 10 µM | > 27 | 1.84 µM
14 | CCCCOc1c(NCCNc2ccnc3cc(Cl)ccc23)c(=O)c1=O | > 50 µM | > 50 µM | > 10 µM | > 10 µM | > 24 | 2.04 µM
15 | CCCCOc1c(N2CCC(Nc3ccnc4cc(Cl)ccc34)CC2)c(=O)c1=O | 37.9 µM | 45.7 µM |  |  | 8 | 4.71 µM
16 | COc1cc(NC(C)CCCNc2c(NCCCC(C)Nc3cc(OC)cc4cccnc34)c(=O)c2=O)c2ncccc2c1 (stereo not drawn) | > 50 µM | > 50 µM |  |  | > 22 | 2.21 µM
